pIC50: −log10 of the molar value.
Tested on: 292921-168-R-J2-PDC complex spheroid growth
Assay: Anticancer human tumor 292921-168-R-J2-PDC patient-derived pancreatic carcinoma cell line growth inhibition [AhR]
Conditions: for pIC50: curve of first compound; for viability, T/C: stronger effect = lower value
Outline: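 Agents were dosed in half-log steps down from roughly clinical Cmax, or from 10 microM where Cmax was unknown, alone and with AhR antagonists. Read-out: percent test/control growth of tumor spheroids containing HUVEC and MSC stromal cells.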

[1] = second compound 0.1 µM, first compound 0.0316 µM
[2] = second compound 0.1 µM, first compound 0.1 µM
[3] = second compound 0.1 µM, first compound 0.316 µM
[4] = second compound 0.1 µM, first compound 1 µM
[5] = second compound 0.1 µM, first compound 3.16 µM
[6] = second compound 0.1 µM, first compound 10 µM
[7] = second compound 0.316 µM, first compound 0.0316 µM
[8] = second compound 0.316 µM, first compound 0.1 µM
[9] = second compound 0.316 µM, first compound 0.316 µM
[10] = second compound 0.316 µM, first compound 1 µM
[11] = second compound 0.316 µM, first compound 3.16 µM
[12] = second compound 0.316 µM, first compound 10 µM
[13] = second compound 1 µM, first compound 0.0316 µM
[14] = second compound 1 µM, first compound 0.1 µM
[15] = second compound 1 µM, first compound 0.316 µM
[16] = second compound 1 µM, first compound 1 µM
[17] = second compound 1 µM, first compound 3.16 µM
[18] = second compound 1 µM, first compound 10 µM
[19] = second compound 3.16 µM, first compound 0.0316 µM
[20] = second compound 3.16 µM, first compound 0.1 µM
[21] = second compound 3.16 µM, first compound 0.316 µM
[22] = second compound 3.16 µM, first compound 1 µM
[23] = second compound 3.16 µM, first compound 3.16 µM
[24] = second compound 3.16 µM, first compound 10 µM
[25] = second compound 10 µM, first compound 0.0316 µM
[26] = second compound 10 µM, first compound 0.1 µM
[27] = second compound 10 µM, first compound 0.316 µM
[28] = second compound 10 µM, first compound 1 µM
[29] = second compound 10 µM, first compound 3.16 µM
[30] = second compound 10 µM, first compound 10 µM
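Also: spheroids exposed to compounds for seven days after three days of growth.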

Compound | pIC50 (second compound 0.1 µM) | pIC50 (second compound 0.316 µM) | pIC50 (second compound 1 µM) | pIC50 (second compound 3.16 µM) | pIC50 (second compound 10 µM) | viability, T/C [1] [%] | viability, T/C [2] [%] | viability, T/C [3] [%] | viability, T/C [4] [%] | viability, T/C [7] [%] | viability, T/C [8] [%] | viability, T/C [9] [%] | viability, T/C [10] [%] | viability, T/C [13] [%] | viability, T/C [14] [%] | viability, T/C [15] [%] | viability, T/C [16] [%] | viability, T/C [19] [%] | viability, T/C [20] [%] | viability, T/C [21] [%] | further results
CC(C)c1c(-c2ccccc2)nc2c(C#N)c[nH]n2c1=O + Cc1cncc(-c2nc(NCCc3c[nH]c4ccccc34)c3ncn(C(C)C)c3n2)c1 | < 5.00 | < 5.00 | < 5.00 | < 5.00 | 6.41 | 103 | 95.1 | 89.7 | 98.8 | 98.7 | 98.8 | 95.8 | 99.8 | 91.2 | 85.6 | 88.9 | 83.5 | 76.4 | 76.3 | 79 | viability, T/C [5]: 97.4%; viability, T/C [6]: 97.2%; viability, T/C [11]: 100%; viability, T/C [12]: 92.7%; viability, T/C [17]: 75.4%; viability, T/C [18]: 78.1%; viability, T/C [22]: 67.1%; viability, T/C [23]: 65.3%; viability, T/C [24]: 62%; viability, T/C [25]: 51%; viability, T/C [26]: 50.1%; viability, T/C [27]: 56.2%; viability, T/C [28]: 46.1%; viability, T/C [29]: 43.9%; viability, T/C [30]: 42.6%
CC1COCCN1c1cc(-c2ccnn2C)c2ccnc(-c3ccn[nH]3)c2n1 (stereo not given) + Cc1cncc(-c2nc(NCCc3c[nH]c4ccccc34)c3ncn(C(C)C)c3n2)c1 | 7.32 | 7.36 | 7.39 | 7.49 | > 8.50 | 60 | 31.8 | 22.5 | 18.1 | 56.8 | 32.7 | 18.7 | 17 | 55.2 | 30 | 18.7 | 17.1 | 49.7 | 25.4 | 17.9 | viability, T/C (second compound 0.1 µM, first compound 0.00316 µM): 87.5%; viability, T/C (second compound 0.1 µM, first compound 0.01 µM): 82.6%; viability, T/C (second compound 0.316 µM, first compound 0.00316 µM): 88.3%; viability, T/C (second compound 0.316 µM, first compound 0.01 µM): 78.6%; viability, T/C (second compound 1 µM, first compound 0.00316 µM): 74.5%; viability, T/C (second compound 1 µM, first compound 0.01 µM): 73%; viability, T/C (second compound 3.16 µM, first compound 0.00316 µM): 60.3%; viability, T/C (second compound 3.16 µM, first compound 0.01 µM): 64.1%; viability, T/C [22]: 17.9%; viability, T/C (second compound 10 µM, first compound 0.00316 µM): 41%; viability, T/C (second compound 10 µM, first compound 0.01 µM): 48.1%; viability, T/C [25]: 44.9%; viability, T/C [26]: 33.2%; viability, T/C [27]: 25.8%; viability, T/C [28]: 22.2%
COc1ccc([C@@H](O)c2cc(-c3ncnc4cc(N5CCOCC5)ccc34)c(F)cc2Cl)nn1 + Cc1cncc(-c2nc(NCCc3c[nH]c4ccccc34)c3ncn(C(C)C)c3n2)c1 | 5.69 | 5.79 | 5.86 | 6.22 | > 7.50 | 81.6 | 85.2 | 68.8 | 67.2 | 80.6 | 78.2 | 81 | 59.7 | 77.7 | 79 | 62.4 | 58.7 | 67.1 | 58.5 | 63.7 | viability, T/C [5]: 39.9%; viability, T/C [6]: 25.8%; viability, T/C [11]: 36.3%; viability, T/C [12]: 26.2%; viability, T/C [17]: 36.3%; viability, T/C [18]: 26%; viability, T/C [22]: 40.2%; viability, T/C [23]: 32.7%; viability, T/C [24]: 23.1%; viability, T/C [25]: 42.7%; viability, T/C [26]: 39.5%; viability, T/C [27]: 42.2%; viability, T/C [28]: 32.3%; viability, T/C [29]: 25.2%; viability, T/C [30]: 20.5%
